Broadly, the IC50 is the concentration needed to halve the response being measured. Read a low IC50 as higher potency.

In patent publication US11325899B2, “Benzofurane and benzothiophene derivatives as PGE2 receptor modulators” (IDORSIA PHARMACEUTICALS LTD, priority 2017, dated 2022) one finds IC50 data, which are given here for six compounds.

This assay addresses T1, EP2 receptor (Homo sapiens, UniProt P43116).
T1 construct: SF295 glioblastoma cells express high endogenous EP2 and no EP4; host or cells: SF295 glioblastoma cells
The assay is described as follows: hEP2 cAMP assay (SF295 glioblastoma cells, HTRF cAMP, PGE2 stimulation). Format: cell-based. The conditions noted are these: antagonistic activity. The procedure, abridged:
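SF295 glioblastoma cells with endogenous EP2 and no EP4, in HBSS/HEPES/BSA with 2 mM IBMX, pre-incubated 45 min at room temperature with compound, then stimulated 30 min with 75 nM PGE2 (EC80). cAMP measured by HTRF; IC50 fitted from duplicate % cAMP versus DMSO control.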
For orientation: Changes in cAMP serve as a functional read-out for many G protein-coupled receptors.

T1 sequence (P43116 whole entry): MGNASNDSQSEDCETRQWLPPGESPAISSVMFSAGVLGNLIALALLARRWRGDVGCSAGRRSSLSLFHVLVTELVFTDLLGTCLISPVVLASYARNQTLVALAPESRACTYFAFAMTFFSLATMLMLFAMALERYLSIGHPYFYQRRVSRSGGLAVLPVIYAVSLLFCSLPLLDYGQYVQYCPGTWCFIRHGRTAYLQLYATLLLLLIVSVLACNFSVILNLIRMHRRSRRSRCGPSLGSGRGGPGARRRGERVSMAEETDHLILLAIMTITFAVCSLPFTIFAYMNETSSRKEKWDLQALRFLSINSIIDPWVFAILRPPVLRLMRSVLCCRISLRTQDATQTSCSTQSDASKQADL

Compound `CCOc1cc(-c2cc(NCCc3c(C#N)sc4c(C)cc(F)cc34)ncn2)ccc1OCCC(=O)O` [Example 176, 3-(4-{6-[2-(2-Cyano-5-fluoro-7-methyl-benzo[b]thiophen-3-yl)-ethylamino]-pyrimidin-4-yl}-2-ethoxy-phenoxy)-propionic acid] displayed an IC50 of 37 nM.

`Cc1sc2c(C)cc(F)cc2c1CCNc1cc(-c2ccc(CC(=O)O)c(CC(C)C)c2)ncn1` [Example 182, (4-{6-[2-(5-Fluoro-2,7-dimethyl-benzo[b]thiophen-3-yl)-ethylamino]-pyrimidin-4-yl}-2-isobutyl-phenyl)-acetic acid] showed an IC50 of 617 nM.

Consider `Cc1sc2c(C)cc(F)cc2c1CCNc1cc(-c2ccc(C(=O)O)c(OCC(C)C)c2)ncn1` [Example 184, 4-{6-[2-(5-Fluoro-2,7-dimethyl-benzo[b]thiophen-3-yl)-ethylamino]-pyrimidin-4-yl}-2-isobutoxy-benzoic acid], for which half-maximal inhibition (IC50) required 39 nM.

Compound `CCCc1cc(-c2cc(NCCc3c(C)sc4c(C)cc(F)cc34)ncn2)ccc1CC(=O)O` [Example 186, (4-{6-[2-(5-Fluoro-2,7-dimethyl-benzo[b]thiophen-3-yl)-ethylamino]-pyrimidin-4-yl}-2-propyl-phenyl)-acetic acid] gave an IC50 of 309 nM.

In the case of `CCOc1cc(-c2cc(NCCc3c(C)sc4c(C)cc(F)cc34)ncn2)ccc1C(=O)C(=O)O` [Example 189, (2-Ethoxy-4-{6-[2-(5-fluoro-2,7-dimethyl-benzo[b]thiophen-3-yl)-ethylamino]-pyrimidin-4-yl}-phenyl)-oxo-acetic acid], inhibition was half-maximal at 27 nM (IC50).

`CCCOc1cc(-c2cc(NCCc3c(C)sc4c(C)cc(F)cc34)ncn2)ccc1CC(=O)O` [Example 190, (4-{6-[2-(5-Fluoro-2,7-dimethyl-benzo[b]thiophen-3-yl)-ethylamino]-pyrimidin-4-yl}-2-propoxy-phenyl)-acetic acid] gave an IC50 of 274 nM. Compared with the last compound, the IC50 is about 10-fold higher.
